# Assay results reported in EP0383170A2, “Methotrexate linked to polymers, process for their preparation, and use” (HOECHST AKTIENGESELLSCHAFT, priority 1989, dated 1990).
# What was measured:
# [1] = system: A 549; assay: Proliferation test (formazan dye reduction), 72 h incubation; format: cell-based; conditions: A 549 cells
# Source text: (§1) Proliferationstest (Methotrexat-Reduktion)
# (§2) Kontrollexperimente erhalten anstelle der Testsubstanz lediglich Wachstumsmedium. […] Flow bei einer Wellenlänge von 492 nm gemessen.
# (§3) Für wiederholte Untersuchungen beträgt der Variationskoeffizient weniger als 15 %. Tabelle 1
# [2] = system: HT 29; assay: as above; format: cell-based; conditions: HT 29 cells
# Source text: as §1, §2, §3
# [3] = system: L1210; assay: as above; format: cell-based; conditions: L1210 cells
# Source text: as §1, §2, §3
# [4] = system: L1210 Leukämie; assay: In vivo efficacy on L1210 leukaemia in mice (median survival time, T/C); conditions: for optimale Dosis: dose giving the greatest antitumoral effect
# Method: Aszites Flüssigkeit wird 7 Tage nach der Tumor-Implantation unter sterilen Bedingungen aus DBA2 Mäusen entnommen (weiblich, 18 bis 20 g). Die Aszites Flüssigkeit wird dreimal mit PBS (phosphate buffered saline) gewaschen, gezählt und anschließend in PBS verdünnt bis zu einer Endkonzentration von 10⁶ Zellen pro 0,2 ml.
# 10⁶ Zellen in 0,2 ml PBS werden DBA2 Mäusen (weiblich, 18 bis 20 g) intraperitoneal appliziert. Dieser Transfer wird einmal wöchentlich wiederholt.
# 10⁵ Zellen der Aszites Flüssigkeit in 0,2 ml PBS werden BDF1 Mäusen (weiblich, 18 bis 20 g) intraperitoneal appliziert. 6 Tiere werden für jede Substanzkonzentration sowie für die Kontrolle eingesetzt.
# a) Die Tiere werden an Tag 1 und Tag 5 nach der Tumorzellenimplantation gewogen. Gewichtsverlust von mehr als 20 % an Tag 5 wird als Indikator eines toxischen Substanzeffektes verwendet.
# b) Am Ende des Experiments (Tod aller Tiere oder Erreichen von Tag 60) wird die mediane Überlebenszeit der Behandlungsgruppen bestimmt, sofern diese 65 % überlebende Tiere am Tag 5 enthielten. Die Ermittlung der medianen Überlebenszeit erfolgt entsprechend der Formel: [formula]
# In dieser Formel bedeutet X den frühesten Tag, an dem die Zahl der überlebenden Tiere N/2 und Y den frühesten Tag, an dem die Zahl der überlebenden Tiere (N/2)-1 ist. In dem Fall, daß N eine ungerade Zahl ist, entspricht die mediane Überlebenszeit dem Zeitpunkt X.
# Die mediane Überlebenszeit wird ausschließlich für im Verlauf des Experiments sterbende Tiere bestimmt. Geheilte Tiere (long time survivors, LTS) werden von der Bestimmung der medianen Überlebenszeit ausgeschlossen und getrennt aufgeführt.
# Aus der medianen Überlebenszeit der behandelten Gruppen (MSTTumor) und Kontrollgruppen (MSTControl) wird der antitumorale Effekt-Tumor/control (T/C) entsprechend der Formel [formula] bestimmt. T/C Werte von mehr als 125 % werden als Indikator einer signifikanten antitumoralen Wirksamkeit der Testverbindung angesehen. Die Dosis, die jeweils den größten antitumoralen Effekt bewirkt (optimale Dosierung) ist in Tab. 2 aufgeführt. Noch lebende Tiere an Tag 60 werden als geheilt betrachtet (LTS). Ergebnisse: s. Tabelle 2
# [5] = free methotrexate; the 330 mg/kg dose is said to lie above it; cited from earlier work
# [6] = L1210, 3xip/ip/Q3D, at optimal dose
smiles,measurement,setting,value
"CN(Cc1cnc2nc(N)nc(N)c2n1)c1ccc(C(=O)N[C@@H](CCC(=O)O)C(=O)O)cc1 [Methotrexat, N-[4-[[(2,4-diamino-6-pteridinyl)-methyl]methylamino]benzoyl]-glutaminsäure]",IC₅₀,[1],"0,01 µg/ml"
same,IC₅₀,[2],"0,008 µg/ml"
same,IC₅₀,[3],"0,01 µg/ml"
same,Wirkung (T/C %),"[4]; L1210, 1xip/ip, at optimal dose",123%
same,optimale Dosis,"[4]; L1210, 1xip/ip",100 mg polymerfixiertes Produkt/kg Körpergewicht
same,Wirkung (T/C %),[4]; [6],378%
same,toxisch,[4]; [6],1
same,Heilungen,"[4]; L1210, 3xip/ip/Q3D, at optimal dose, animals alive at day 60 (LTS)",5/6
same,optimale Dosis,"[4]; L1210, 3xip/ip/Q3D",80 mg polymerfixiertes Produkt/kg Körpergewicht
same,Lebensverlängerungen gegenüber unbehandelten Kontrollen,"[4]; mice with L1210 leukaemia, single i.p. application of 60 mg/kg body weight methotrexate equivalent",nicht wirksam
same,LD₅₀,[5],< 330 mg/kg
